The values that follow come from patent US10227295B2, “Selective histone deactylase 6 inhibitors” (H. LEE MOFFITT CANCER CENTER AND RESEARCH INSTITUTE, INC., priority 2013, dated 2019).

One assay relates to murine melanoma B16. As to the kind of experiment: Cell viability CellTiter 96 Aqueous ONE, B16. It counts as cell-based. Conditions: B16, 24 hrs, compared to DMSO. The method, then: (§1) Human cutaneous T-cell lymphoma (CTCL) HuT-78 (A), murine mantle cell lymphoma (MCL) (B), and murine melanoma B16 (C) and SM1 (D) cells were incubated with JB7-19, JB7-22, JB720 at different concentrations for 24 hrs. Cell viability was measured using CellTiter 96 Aqueous ONE solution (Promega, Madison, Wis.) and compared to DMSO treated control samples. Error bars represent standard deviation from triplicates.

Assay [1] relates to IL-10 production in murine peritoneal elicited primary macrophages (PEM). Briefly: IL-10 production ELISA, PEM. It counts as cell-based. The note with it: 24 hrs. The method, then:
(§2) Murine peritoneal elicited primary macrophages (PEM)(A) and murine RAW264.7 (B) cells were incubated with JB7-19, JB7-22, JB720 at the concentration indicated on each chart. After 24 hrs, the production of IL-10 was measured by ELISA.
(An ELISA detects its analyte on a solid surface through an enzyme-linked reagent.)

In assay [2] the test system is IL-10 production in murine RAW264.7 cells. Briefly: IL-10 production ELISA, RAW264.7. It is filed as cell-based. The note with it: RAW264.7, 24 hrs. The method, then: as §2
Assay [3] relates to Human cutaneous T-cell lymphoma (CTCL) HuT-78. Briefly: Cell viability CellTiter 96 Aqueous ONE, HuT-78. It counts as cell-based. Conditions: HuT-78, 24 hrs, compared to DMSO. The method, then: as §1
For another assay, the system named is murine melanoma SM1. As to the kind of experiment: Cell viability CellTiter 96 Aqueous ONE, SM1. Conditions: SM1, 24 hrs, compared to DMSO. It is filed as cell-based. As to the method: as §1
In assay [4] the test system is acetyl-tubulin and acetyl-histone3 in human melanoma cell lines. Briefly: Western blot of HDAC substrate acetylation in human melanoma cells. It is filed as cell-based. Conditions: 24 hrs. The method, then: Error bars represent standard deviation from triplicates. This figure is representative of three independent experiments. (F,G,H) Cell cycle analysis of melanoma WM164, WM983A and WM793 human melanoma cell lines stained with propidium iodide. Data is representative of three experiments with similar results.
To confirm the selectivity of isotype specific HDACi, Western blot analysis was performed on the acetylation status of known HDAC substrates including histone H3 and H4, which are known Class I HDAC targets, and α-tubulin, a target for HDAC6. The doses required to impart the anti-proliferative effect coincided with that needed to increase acetylation of the respective HDAC substrates (FIG. 41F-41H). […] Conversely, HDAC6 selective inhibitors (HDAC6i) increase α-tubulin acetylation but not histone acetylation (FIG. 41F).
Background: A western blot detects proteins with antibodies after separation by electrophoresis.

In assay [5] the test system is murine mantle cell lymphoma (MCL). As to the kind of experiment: Cell viability CellTiter 96 Aqueous ONE, MCL. It is filed as cell-based. The note with it: 24 hrs, compared to DMSO. As to the method: as §1
The subject of assay [6] is B16 murine melanoma cells. As to the kind of experiment: B16 melanoma cell growth inhibition MTS assay. It counts as cell-based. Conditions: for GI50: Mus musculus, B16 murine melanoma cells; for GI50 / growth inhibition of B16 melanoma cells (in words): 48 h, MTS. As to the method: B16 murine melanoma cells were plated at 5×10^3/well in 96 well flat bottom plates. The following day, media was changed to that containing various concentrations of HDACi or matched DMSO vehicle concentrations diluted in complete medium done in triplicate. Cells were incubated for 48 hours at 37° C. and 5% CO2. […] Briefly, 20 μL of reagent were added per well and incubated at 37° C. for 3 hours. […] All values were then normalized and expressed as a percentage of medium control (100%).
On the technique in general: Tetrazolium dyes change colour on reduction, which living cells bring about.

Assay [7] addresses human, recombinant full-length HDAC6 (Homo sapiens (Human), UniProt Q9UBN7). As to the kind of experiment: HDAC inhibition assay (Reaction Biology), HDAC6. It counts as biochemical.
For assay [8], the system named is NRAS and BRAF mutant human melanoma cell lines. Briefly: Human melanoma cell proliferation MTS assay. It counts as cell-based. Conditions: 24 h, panel of human melanoma cell lines. As to the method: Cell proliferation was evaluated using various pan- and isotype selective HDACi in a broad panel of human melanoma cell lines. Briefly, cells were plated at 10×10^3/well in a 96 well flat bottom plate. The following day, media was changed to that containing different concentrations of HDACi or matched DMSO vehicle concentrations diluted in complete medium done in triplicate, all with a final concentration of less than 0.1% DMSO. Cells were incubated for 24 hours at 37° C. and 5% CO2. […] All values were then normalized and expressed as a percentage of medium control growth.

In the next assay the test system is B16 melanoma. Briefly: In vivo B16 melanoma tumor growth in C57BL/6 mice. The note with it: 25 mg/kg, intraperitoneal, three times weekly, B16 subcutaneous.
The subject of assay [9] is melanoma antigens gp100, MART1, TYRP1 and TYRP2 in human melanoma cell lines. As to the kind of experiment: Tumor antigen expression by qRT-PCR. It counts as cell-based. The note with it: 48 hours. As to the method:
(D) Expression of tumor antigens was measured in human WM164 non-target and HDAC6KD cells. (E) Expression of tumor antigens mart-1 and gp-100 was measured by western blot.
In addition to direct cytotoxicity, pan-HDACi have immunologic effects on melanoma including modulation of MHC, co-stimulatory molecules, and cytokine production. In both human and murine melanoma cell lines, genetic (FIG. 43A) and pharmacologic (FIG. 43B) disruption of HDAC6 led to increased surface expression of MHC I by flow cytometry.

Assay [10] relates to acetyl-α-tubulin and acetyl-H3 in B16 melanoma cells. Briefly: Tubulin and histone acetylation Western blot assay. It is filed as cell-based, murine. The note with it: low nanomolar treatment, 24 h. As to the method: […]. B16 melanoma cells were plated at 10^5 cells/well in 12 well plates and allowed to adhere overnight. A 50 mM stock of compound was then added by serial dilutions in complete medium to the indicated concentrations. Cells were incubated for 24 h under humidified conditions (37° C., 5% CO2). Wells were then washed with cold PBS, and cells were lysed in a buffer containing 10 mM Tris-HCl pH 8.0, 10% SDS, […], 100 mM DTT, and 1× protease inhibitor (Roche). Cells were lysed for 30 min on ice and then sonicated for 8 min (8 cycles of 30 s on/30 s rest). Cells were then boiled for 10 min with 6× gel loading buffer and resolved on 4-15% gradient gels and subsequently transferred onto nitrocellulose membranes. Membranes were blocked with 5% milk in PBS-T and detection of specific antigens using antibodies against acetyl-H3 and H3 (Cell Signaling), and acetyl-α-tubulin and α-tubulin (Sigma). Bands were detected by scanning blots with LI-COR Odyssey imaging system using both 700 and 800 channels.

human, recombinant full-length HDAC6, sequence (Q9UBN7 whole entry): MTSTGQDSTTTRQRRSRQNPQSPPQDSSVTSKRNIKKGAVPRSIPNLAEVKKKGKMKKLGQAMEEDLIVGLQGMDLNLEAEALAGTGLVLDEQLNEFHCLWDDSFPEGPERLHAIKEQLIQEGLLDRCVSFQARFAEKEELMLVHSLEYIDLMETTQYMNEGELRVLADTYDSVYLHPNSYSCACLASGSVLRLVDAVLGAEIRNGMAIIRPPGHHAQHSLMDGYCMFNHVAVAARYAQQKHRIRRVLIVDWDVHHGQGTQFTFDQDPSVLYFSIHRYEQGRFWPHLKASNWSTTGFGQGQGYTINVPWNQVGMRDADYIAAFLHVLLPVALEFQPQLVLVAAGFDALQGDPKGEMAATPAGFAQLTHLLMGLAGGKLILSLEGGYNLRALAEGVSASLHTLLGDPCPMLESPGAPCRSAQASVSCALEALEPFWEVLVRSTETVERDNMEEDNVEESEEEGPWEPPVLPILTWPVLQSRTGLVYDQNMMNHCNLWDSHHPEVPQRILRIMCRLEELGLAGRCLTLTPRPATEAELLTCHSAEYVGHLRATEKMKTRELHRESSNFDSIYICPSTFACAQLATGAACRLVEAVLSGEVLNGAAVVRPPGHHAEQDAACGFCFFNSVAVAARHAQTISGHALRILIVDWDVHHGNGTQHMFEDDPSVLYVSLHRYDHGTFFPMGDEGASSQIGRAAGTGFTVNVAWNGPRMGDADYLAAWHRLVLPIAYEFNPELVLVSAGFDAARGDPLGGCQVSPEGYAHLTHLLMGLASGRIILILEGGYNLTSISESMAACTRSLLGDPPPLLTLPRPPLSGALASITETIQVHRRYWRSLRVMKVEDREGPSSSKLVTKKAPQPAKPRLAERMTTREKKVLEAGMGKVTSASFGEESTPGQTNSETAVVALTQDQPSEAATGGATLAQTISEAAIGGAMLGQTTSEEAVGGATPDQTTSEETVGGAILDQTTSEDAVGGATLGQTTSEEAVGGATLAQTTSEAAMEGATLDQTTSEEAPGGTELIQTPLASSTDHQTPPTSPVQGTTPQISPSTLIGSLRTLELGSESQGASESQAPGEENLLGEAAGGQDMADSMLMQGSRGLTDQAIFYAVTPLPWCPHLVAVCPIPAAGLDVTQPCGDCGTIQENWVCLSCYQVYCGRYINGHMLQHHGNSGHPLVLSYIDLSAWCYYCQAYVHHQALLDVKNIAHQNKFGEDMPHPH

Consider `CCCCN(Cc1ccc(C(=O)NO)cc1)C(=O)Nc1ccc2cn[nH]c2c1` [JB7-19, 4-((1-butyl-3-(1H-indazol-6-yl)ureido)methyl)-N-hydroxybenzamide], for which the “cell proliferation / viability” value (in the assay with murine melanoma B16; in assay [3]; in the assay with murine melanoma SM1; in [5]) was “decrease cell proliferation” in each case. The IL-10 production result in assay [1] and in assay [2] was “inhibit IL-10 production” each time. The “acetylation of α-tubulin and histone” value in assay [4] is recorded as “increase acetyl-tubulin without modifying the acetylation status of Histone 3”.

As for `COc1ccccc1NC(=O)N(CCCN(C)C)Cc1ccc(C(=O)NO)cc1` [Compound 5a, 4-((1-(3-(dimethylamino)propyl)-3-(2-methoxyphenyl)ureido)methyl)-N-hydroxybenzamide], in assay [6], the GI50 (usually the concentration giving 50% growth inhibition) worked out at 75.3 ± 1.23 µM.

Turning to `COc1ccccc1NC(=O)NCc1ccc(C(N)=O)cc1` [Compound 1], in [7] (Table 1A), the “Fold Selective (HDAC1/HDAC6)” value is on record as 2.

`CCN(C(=O)NCc1ccc(C(=O)NO)cc1)c1ccccc1` [Compound 8c, 4-((3-ethyl-3-phenylureido)methyl)-N-hydroxybenzamide] displayed a 50% growth inhibitory concentration (GI50) in [6] greater than 100 µM.

In turn, `Cc1[nH]c2ccccc2c1CCNCc1ccc(/C=C/C(=O)NO)cc1` [LBH589, reference compound] registered a GI50 in assay [6] of 0.15 µM. For the same compound, in assay [8] (read-out: IC50 range, inhibition of proliferation), the IC50 lay in the range of 0.01 to 0.05 µM.

For `O=C(NO)c1ccc(CN(CCc2ccccc2)C(=O)Nc2ccccc2)cc1` [Compound 5h, N-hydroxy-4-((1-phenethyl-3-phenylureido)methyl)benzamide], in assay [6], the “growth inhibition of B16 melanoma cells (in words)” value (“growth inhibition” for short) is recorded as “capable of inhibiting the growth” and the GI50 was determined as 15.4 ± 1.2 µM.

On to Trichostatin A [TSA], for which, in assay [8], the “concentration range inhibiting proliferation (in words)” value is “low 100 nM range”.

Take `COc1ccccc1NC(=O)N(CCc1c[nH]c2ccccc12)Cc1ccc(C(=O)NO)cc1` [Compound 5c, 4-((1-(2-(1H-indol-3-yl)ethyl)-3-(2-methoxyphenyl)ureido)methyl)-N-hydroxybenzamide]: halving of growth in assay [6] (GI50) required 30.4 ± 1.32 µM.

In the case of `COc1ccccc1N1C(=O)N(Cc2ccc(C(=O)NO)cc2)C(C)(C)C1=O` [Compound 10a], in [7] (Table 2, cyclic urea compounds), the “Fold Selective (HDAC1/HDAC6)” value was 386.

Turning to `O=C(NO)c1ccc(CN2C(=O)N[C@@H](Cc3ccccc3)C2=O)cc1` [Compound 11a], in assay [7] (Table 2, cyclic urea compounds), the “Fold Selective (HDAC1/HDAC6)” value was determined as 295.

In assay [6], `COc1ccccc1NC(=O)N(CCc1ccc(O)cc1)Cc1ccc(C(=O)NO)cc1` [Compound 5d, N-hydroxy-4-((1-(4-hydroxyphenethyl)-3-(2-methoxyphenyl)ureido)methyl)-benzamide] showed a GI50 of 18.4 ± 1.23 µM.

In the case of `CC(C)[C@@H]1C(=O)N(c2ccccc2)C(=O)N1Cc1ccc(C(=O)NO)cc1` [Compound 10b], the “Fold Selective (HDAC1/HDAC6)” value in assay [7] (Table 2, cyclic urea compounds) worked out at 531.

Turning to `COc1ccccc1NC(=O)N(CCCO)Cc1ccc(C(=O)NO)cc1` [Compound 5b], in [6], the “growth inhibition” value was “performed very poorly” and the GI50 is greater than 100 µM.

In the case of `CCCCN(C(=O)NCc1ccc(C(=O)NO)cc1)c1ccccc1` [Compound 8a, 4-((3-butyl-3-phenylureido)methyl)-N-hydroxybenzamide], the GI50 in assay [6] was found to be 65.8 ± 1.19 µM.

In turn, `COCCCN(C(=O)NCc1ccc(C(=O)NO)cc1)c1ccccc1` [Compound 8b, N-hydroxy-4-((3-(3-methoxypropyl)-3-phenylureido)methyl)benzamide] yielded a GI50 in assay [6] greater than 100 µM.

In assay [6], `COCCCN(Cc1ccc(C(=O)NO)cc1)C(=O)Nc1ccccc1` [Compound 5e, N-hydroxy-4-((1-(3-methoxypropyl)-3-phenylureido)methyl)benzamide] registered a concentration for 50% growth inhibition (GI50) of 22.2 ± 1.41 µM.

`CCCCN(Cc1ccc(C(=O)NO)cc1)C(=O)Nc1ncccn1` [JB6-22, 4-((1-butyl-3-(pyrimidin-2-yl)ureido)methyl)-N-hydroxybenzamide]: the “cell proliferation / viability” value (in the assay with murine melanoma B16; in assay [3]; in the assay with murine melanoma SM1; in [5]) was “decrease cell proliferation” throughout. Also, the IL-10 production result in [1] and in [2] was “inhibit IL-10 production” in each case. In addition, the “acetylation of α-tubulin and histone” value in assay [4] is listed as “increase acetyl-tubulin without modifying the acetylation status of Histone 3”.

Take `CCCCN(Cc1ccc(C(=O)NO)cc1)C(=O)Nc1ccccc1` [Compound 5g, 4-((1-butyl-3-phenylureido)methyl)-N-hydroxybenzamide]: the tumor growth result with B16 melanoma is reported as “delayed tumor growth”. Besides, in assay [6], the “less potent than LBH589 in inducing murine B16 melanoma cell death” value is “approximately 100 fold” and the “growth inhibition” value was “capable of inhibiting the growth”. The “melanoma antigen expression at the mRNA level” value in [9] is “upregulation of melanoma antigens gp100, MART1, TYRP1 and TYRP2”. Besides, the “acetyl α-tubulin levels” value in assay [10] was “dose-dependant increase”. Besides, in [10] (increase only at 1 and 10 μM), the “histone H3 acetylation” value is on record as “without a concamanent elevation”. In addition, the “acetylation of α-tubulin and histone” value in [4] is “increase acetyl-tubulin without modifying the acetylation status of Histone 3”.
